Assay results reported in patent US8759073B2, “Method for effectively controlling harmful organisms in large-scale culture of microalgae” (ENN Science & Technology Development Co., Ltd., priority 2009, dated 2014).

What was measured:
Chlorella sp. = test: Growth of cultured algae after treatment, 320 L bubbling reactor; conditions: for algae growth compared with adjusting pH with NaOH: pH adjusted with 1M ammonia
Procedure: (§1) pH of the normally cultured microalgae is adjusted into various ranges. The growth rate of the microalgae is measured and their appearance is observed under a microscope.
(§2) Chlorella sp. (purchased from FACHB collection, Wuhan Aquatic Research Institure, Chinses Academy of Sciences) was cultured in a 320 L bubbling reactor (manufactured by Longfang Jiangchuan plexiglass Co. Ltd., φ300 mm×2 m) out-of-doors under a sunlight film. The culture condition included: a temperature of about 25 °C, a humidity of 60%-80%, and an illumination of 8000-20000 lux. Modified SM (see Table 2) (pH 7.0-9.0 for the normal culture) was used. […] Then, CO2 was aerated to adjust pH to be 7.0-8.0.
Chlorella sp. (purchased from FACHB collection, Wuhan Aquatic Research Institure, Chinses Academy of Sciences) was cultured in a 320 L bubbling reactor (manufactured by Longfang Jiangchuan plexiglass Co. Ltd., φ300 mm×2 m) out-of-doors under a sunlight film. Modified SM medium (see Table 2) (pH 7.0-9.0 for the normal culture) was used. The culture condition included: a temperature of about 25 °C, a humidity of 60%-80%, and an illumination of 8000-20000 lux. […] Then air was sufficiently aerated, and pH was raised to 7.0-7.5 after 4 hours.
(§3) Chlorella sp. (obtained from Jinan University) was cultured in a 320 L bubbling reactor (manufactured by Longfang Jiangchuan plexiglass Co. Ltd., φ300 mm×2 m) out-of-doors under a sunlight film (with a temperature of about 25 °C, a humidity of 60%-80%, and an illumination of 8000-20000 lux). Modified SM medium (see Table 2) was used. When Amoeba, Oxyrrhis and ciliate contaminations were observed is with an oil immersion lens (Nikon fluorescent invert microscope Ti series), pH was adjusted to 11.0-11.8 with 1M NaOH. […] Then, CO2 was aerated continuously to saturation (pH 5.6). […] Then air was sufficiently aerated.
as §2, with “film. Modified SM medium (see Table 2) (pH 7.0-9.0 for the normal culture) was used.” for “film.”, “lux.” for “lux. Modified SM (see Table 2) (pH 7.0-9.0 for the normal culture) was used.”, “Then” for “Then,”, “aerated and pH was adjusted” for “aerated”, “to” for “to adjust pH to be”
Chlorella sp. (obtained from Jinan University) was cultured in a 320 L bubbling reactor (manufactured by Longfang Jiangchuan plexiglass Co. Ltd., φ300 mm×2 m) out-of-doors under a sunlight film (with a temperature of about 25 °C, a humidity of 60%-80%, and an illumination of 8000-20000 lux). Modified SM medium (see Table 2) was used. […] Then CO2 was aerated to saturation (pH 5.6) for 24 hours continuously. […] Then air was sufficiently aerated.

Spirulina maxima = test: Growth of cultured algae after treatment, 500 L raceway pond; assay type: cell-based; conditions: Example 15; pH adjusted with 1M ammonia
Procedure: Modified SM (see Table 2) was used. […] Then air was sufficiently aerated. Twenty-four hours later, the algae could resume to grow.
Modified SM (see Table 2) was used. […] One hour later, CO2 was aerated to saturation for 23 hour continuously (about pH 5.8). […] Then air was sufficiently aerated. Twenty-four hours later, the algae could resume to grow.

Oxyrrhis = test: Control of Oxyrrhis contamination in microalgae culture, microscope examination; assay type: cell-based, Oxyrrhis sp
Excerpt: If the contaminated alga liquid is identified as acid tolerant contamination, pH value is raised up with alkalis in the culture system of the microalgae and maintained for a period of time. The pH value cannot be higher than the maximal tolerable pH of the microalgae. […] In an embodiment, said alkali can be ammonia. In an embodiment, said alkali can be NaOH. In an embodiment, said alkali can be 1M NaOH. Depending on different pH requirements and different culture systems, alkalis with different concentrations can be used according to the agitation condition, as long as the transient pH is not too high to be harmful to microalgae, and dilution of the cell concentration in the culture system (caused by adding too much alkali solution) should also be avoided. […] In an embodiment, the pH of the culture system is adjusted to 11.5-12.0 with 1M NaOH or 1M ammonia. In an embodiment, the pH of the culture system is adjusted to 11.0-11.8 or 8.0-11.0 with 1M NaOH or 1M ammonia. In an embodiment, the pH of the culture system is adjusted to 8.0-11.0, 11.5-12.0 or 11.0-11.8 and maintained for 3 hours.
Microscope examination is always used as one of the bases for determining the growth status in the process of microalgae culture.
as §2, §3
(§4) Chlorococcum sp. (obtained from Qingdao Marine Institute) was cultured in a 60 L glass plate reactor (manufactured by Longfang Jiangchuan plexiglass Co. Ltd., OP=10 cm) under a sunlight film (with a temperature of about 25 °C, a humidity of 60%-80%, and an illumination of 8000-20000 lux) (pH 8.0-9.0 for the normal culture). Modified BG11 medium (see Table 3) was used. […] Then CO2 was aerated and pH was adjusted to 7.0-8.0.
(§5) Chlorococcum sp. (obtained from Qingdao Marine Institute) was cultured in a 60 L glass plate reactor (manufactured by Longfang Jiangchuan plexiglass Co. Ltd., OP=10 cm) under a sunlight film (with a temperature of about 25 °C, a humidity of 60%-80%, and an illumination of 8000-20000 lux) (pH 8.0-9.0 for the normal culture). Modified BG11 medium (see Table 3) was used. […] One hour later, CO2 was aerated to saturation (about pH 5.6) for 24 hour continuously. […] Then air was sufficiently aerated.

Chlorococcum sp. = test: Growth of cultured algae after treatment, 60 L glass plate reactor; conditions: for algae growth compared with adjusting pH with NaOH: pH adjusted with 1M ammonia
Procedure: as §1
Chlorococcum sp. (obtained from Qingdao Marine Institute) was cultured (pH 8.0-9.0 for the normal culture) in a 60 L glass plate reactor (manufactured by Longfang Jiangchuan plexiglass Co. Ltd., OP=10 cm) under a sunlight film (with a temperature of about 25 °C, a humidity of 60%-80%, and an illumination of 8000-20000 lux). Modified BG11 medium (see Table 3) was used. […] CO2 was aerated continuously. […] Then air was sufficiently aerated, and pH was raised to 7.0-8.0 in 4 hours.
as §4, §5
as §4, with “air” for “CO2”, “sufficiently aerated.” for “aerated and pH was adjusted to 7.0-8.0.”
as §4
Chlorococcum sp. (obtained from Qingdao Marine Institute) was cultured in a 60 L glass plate reactor (manufactured by Longfang Jiangchuan plexiglass Co. Ltd., OP=10 cm) under a sunlight film (with a temperature of about 25 °C, a humidity of 60%-80%, and an illumination of 8000-20000 lux) (pH 8.0-9.0 for the normal culture). Modified BG11 medium (see Table 3) was used.

SMILES | time until algae started to grow (Chlorella sp.; Example 11, pH 8.0 with 1M ammonia 3 h, then CO2 to pH 7.0-8.0) [h] | algae growth compared with adjusting pH with NaOH (Chlorella sp.; Example 11) | algae growth compared with adjusting pH with NaOH (Chlorella sp.; Example 12) | algae growth compared with adjusting pH with NaOH (Spirulina maxima) | Oxyrrhis, result of microscope examination (Oxyrrhis; Example 11, Chlorella sp. culture, pH 8.0 with 1M ammonia, three hours) | Oxyrrhis, result of microscope examination (Oxyrrhis; Example 12, Chlorella sp. culture, mixed contamination, pH 9.0 with 1M ammonia, one hour) | Oxyrrhis, result of microscope examination (Oxyrrhis; Example 13, Chlorococcum sp. culture, pH 10.0 with 1M ammonia, three hours) | Oxyrrhis, result of microscope examination (Oxyrrhis; Example 14, Chlorococcum sp. culture, mixed contamination, pH 9.0 with 1M ammonia) | time until algae started to grow (Chlorococcum sp.; Example 13, pH 10.0 with 1M ammonia 3 h, then CO2 to pH 7.0-8.0) [h] | algae growth compared with adjusting pH with NaOH (Chlorococcum sp.; Example 13) | algae growth compared with adjusting pH with NaOH (Chlorococcum sp.; Example 14) | Oxyrrhis, result of microscope examination (Oxyrrhis; Example 2, Chlorella sp. culture, pH 11.0-11.8 with 1M NaOH, three hours) | Oxyrrhis, result of microscope examination (Oxyrrhis; Example 4, Chlorella sp. culture, mixed contamination, pH 11.0-11.8 with 1M NaOH, one hour) | Oxyrrhis, result of microscope examination (Oxyrrhis; Example 6, Chlorococcum sp. culture, pH 11.5-12.0 with 1M NaOH, three hours) | Oxyrrhis, result of microscope examination (Oxyrrhis; Example 7, Chlorococcum sp. culture, mixed contamination, pH 11.5-12.0 with 1M NaOH)
N [1M ammonia, ammonia] | 18 | clearly grew better | clearly grew better | clearly grew better | almost no Oxyrrhis was observed | lost its activity essentially | almost no Oxyrrhis | inactivated essentially | 18 | clearly grew better | clearly grew better | – | – | – | –
[Na+].[OH-] [1M NaOH, NaOH] | – | – | – | – | – | – | – | – | – | – | – | almost no Oxyrrhis | essentially inactivated | almost no Oxyrrhis | essentially inactivated
